Experimental findings from patent US5707963A, “Methods of using growth inhibitory peptides” (Health Research, Incorporated, priority 1996, dated 1998) are described below.

Where “and” joins values, the source holds several entries; their conditions need not be identical. Equal entries are not always repeated. Where two headings read alike, the source gives them in different places.

Assay [1] concerns hydrocortisone (HC)-stimulated growth of mouse spleen. Kind of assay: In vivo wet weight bioassay, inhibition of HC-stimulated growth of the spleen. As to conditions: for Percent Growth Inhibition: immature mouse spleen. As for the experimental part: An in vivo wet weight bioassay measuring inhibition of hydrocortisone (HC)-stimulated growth of the spleen was also performed. The procedure of Mizejewski et al. (see previous citations) was used for the wet weight assay. The applicability of the wet weight bioassay for measuring HC-stimulated growth of the spleen is disclosed by el-Fouhil, A. F. and Turkall, R. M., "Effect of alternate-day hydrocortisone therapy on the immunologically immature rat. I: Effect on blood cell count, immunoglobulin concentrations, and body and organ weights", Toxicologic Pathology 21(4):377-382 (1993).
Briefly, the synthesized powdered peptide was reconstituted in saline (1 mg/ml) to form a stock solution of the GIP. The stock solution was appropriately diluted to provide dosages of 500 ng to 100 μg/mouse. 0.1 ml of the appropriately diluted GIP was injected intraperitoneally into 15-18 day old Nya:NYLAR female mice. Control mice were injected with saline. […] 23 hours after the second injection, spleens were dissected, trimmed free of connective tissue and immediately weighed. The spleenic wet weights were normalized to mouse body weight (mg spleenic weight/g of body weight) to compensate for differences in body weight among litters of the same age. Percent inhibition of HC-stimulated spleenic growth was calculated as described by Mizejewski et al. (1983).

Assay [2] relates to human MCF-7 breast cancer cells. Kind of assay: In vitro MCF-7 focus assay (estrogen-induced foci formation). It counts as cell-based. As to conditions: for Percent Foci Inhibition: MCF-7 Cell Culture. The text has this: In an in vitro bioassay, the MCF-7 focus assay was used for preliminary evaluation of the GIP preparation for both estrogenicity and antiestrogenicity. One of the major consequences of human estrogen exposure is induction of cell proliferation and subsequent structural rearrangement of the acini, a process based on the interactions of multiple estrogen dependent gene expressions. […] The estrogen dependent MCF-7 cell proliferation is primarily a postconfluent event which leads to development of multicellular aggregates (foci). […] The procedure of Gierthy et al. was used for the MCF-7 assay of the GIP (see Gierthy, J. F. et al., "Correlation of in Vitro and in Vivo Growth Suppression of MCF-7 Human Breast Cancer by 2,3,7,8-Tetrachlorodibenzo-p-dioxin" Cancer Research 53:3149-3153 (1993)).
Briefly, stock MCF-7 cells were suspended in medium (see Gierthy, J. F. et al. 1993) after treatment with trypsin (0.25%) and seeded into 24-well plastic tissue culture plates. The MCF-7 cells were seeded (2 cm^2 /well) at a density of b 10^5 cells/well in 1 ml of medium, and incubated at 37° C. in a humidified atmosphere containing 5% CO2. The cultures were refed at 24 hours and every 4-5 days thereafter with 2 ml medium supplemented with 1×10^-9 M 17β-estradiol, a concentration which induces maximum focus development, and various concentrations of GIP (10^-8 M-10^-13 M) in nonestrogenic DC5 medium and estrogenic DF5 medium which contains high levels of bovine alpha-fetoprotein (5% fetal bovine serum supplemented). After 14 days the cultures were fixed with formalin in pH 7.4 buffer (see Gierthy, J. F. et al. 1993) and stained with 1% rhodamine B. Foci were counted by using an automated colony counter modified to magnify the image of the microscopic multicellular foci. The foci retained the red rhodamine B stain to a greater extent than did surrounding monolayer cells, affording appropriate contrast for enumeration.

Assay [3] relates to mouse mammary tumor 6WI-1. It counts as in vivo. As for the experimental part: A second assay was also used to assess the percent of inhibition for the various fragments. […] The procedure of Parsons et al. was used in this assay (see Parsons et al., Cancer investigation 4(2):109-126 (1986)). The mouse mammary tumor 6WI-1 normally kills animals within 12-15 days. In this assay, the tumor cells were injected into the body cavity of live mice. […] The inhibition of tumor growth is indicated by percentage. […] Unless otherwise indicated, the dose of peptide or peptide fragment was injected into the body cavity of the mice on day 1 and every day for 15 days. Percent inhibition was measured on day 15.

As to “Leu Ser Glu Asp Lys Leu Leu Ala Cys Gly Glu Gly Ala Ala Asp Ile ile Ile Gly His Leu Cys Ile Arg His Glu Met Thr Pro Val Ash Pro Gly Val (LSEDKLLACGEGAADIIIGHLCIRHEMTPVNPGV) [GIP]”, the “inhibition of HC-induced growth (range over Table 4)” value in assay [1] (500 ng to 100 μg/mouse) is 24-100%. Moreover, the “Percent Growth Inhibition” value in assay [1] (1.0 μg per mouse) is 100%; in assay [1] (10.0 μg per mouse), 76%; in assay [1] (100 μg per mouse, 1.0 μg of HC instead of 0.5 μg), 24% and 34%; in assay [1] (100 μg per mouse, HC 0.5 micrograms) it was 67%; in assay [3] (adult mouse, 100 μg per mouse daily for 15 days, 0.3-1.0×10^6 tumor cells per mouse, day 15) it was 97%; in assay [3] (adult mouse, 100 μg per mouse daily for 15 days, 1.1-4.0×10^6 tumor cells per mouse, day 15), 79%. Moreover, the “Percent Growth Inhibition” value in assay [3] (adult mouse, 1.1-4.0 × 10^6 tumor cells mixed with 100 μg of the peptide, injected only on day 1) was 85%; in assay [3] (immature mouse, 1000 μg per mouse daily for 15 days, 0.3-1.0×10^6 tumor cells per mouse, day 15), 57%; in assay [3] (immature mouse, 1000 μg per mouse daily for 15 days, 1.1-4.0×10^6 tumor cells per mouse, day 15), 49%. Also, in assay [1] (immature spleen, produced 100% growth inhibition), the most effective dose amounted to 1.0 μg/mouse. In assay [2] (10^-10 to 10^-13 M peptide concentration), the “inhibition in the MCF-7 cell culture assays” value is recorded as 60-70%. Further, the “Percent Foci Inhibition” value was 60-70% in assay [2] (14 days); 60-74% and 50-60% in assay [2] (peptide molarity 10^-11 -10^-13, 14 days); 40% in assay [2] (peptide molarity 10^-12, added human AFP). For the same substance, the “maximum inhibition of DF5 induced foci development” value in assay [2] (estrogenic DF5 medium, GIP 10^-10 to 10^-13 M) is on record as 74%. Also, the “concentration at which estrogenic foci induction starts” value in assay [2] (nonestrogenic DC5 medium, dose responsive) is 10^-8 M.
